According to the NIST ThermoML archive (doi:10.1016/j.tca.2018.03.014):
± gives the expanded uncertainty stated by the source.

Key:
[1] = Crystal; DTA
[2] = Molar enthalpy of transition or fusion; conditions: Crystal 2; DSC

Normal melting temperature [1]: 58.10 ± 4 °C
Molar enthalpy of transition or fusion [2]: 16 ± 0.335 kcal/mol
Structure (SMILES): CCCCCCCCCCCCCCCCCCO [1-octadecanol]
